{
  "source": "patent US10683506B2",
  "about": "“CD117 ligand-drug conjugates for targeted cancer therapy” (THE METHODIST HOSPITAL SYSTEM, priority 2015, dated 2020)",
  "assay_type_in_all_cases": "cell-based",
  "key": {"[1]": {"system": "AML cells (HEL)", "experiment": "Cell growth inhibition by MTT assay", "method": "(§1) Cell growth inhibition was monitored by MTT (MTT (3-[4,5-dimethylthiazol-2-yl]-2,5-diphenyltetrazolium bromide) assay post treatment. Cells (5000) were treated by CD117 Apt-MTX or equal molar free MTX in RPMI 1640 medium for 2 h. After replacement with fresh medium containing 10% serum, cells were cultured for an additional 48 hours and then 10 μl of MTT solution (5 mg/mL in PBS) were added to each well. After a further 4 h of incubation, the culture medium was removed and the formazan crystals in the cells were solubilized with 100 μl of DMSO for 15 minutes. The UV absorbance at 570 nm was measured with a microplate reader."}, "[2]": {"system": "CD117-negative control cells (U937)", "experiment": "Cell growth inhibition by MTT assay", "method": "as §1"}, "[3]": {"system": "HEL cells", "experiment": "Apoptosis assay, Annexin V staining, flow cytometry", "conditions": "10 nM MTX payload or equal molar", "method": "(§2) Treated cells also were investigated by apoptosis assay. Annexin V-APC staining (BD Biosciences, San Jose, Calif.) was performed according to the manufacturer's instructions. The cell samples were analyzed using a FACS caliber (BD Biociences, San Jose, Calif., USA) flow cytometry equipped with cellquest software."}, "[4]": {"system": "CD117-negative control cells (U937)", "experiment": "Apoptosis assay, Annexin V staining, flow cytometry", "conditions": "10 nM MTX payload or equal molar", "method": "as §2"}},
  "data": [
    {"smiles": "CN(Cc1cnc2nc(N)nc(N)c2n1)c1ccc(C(=O)N[C@@H](CCC(=O)O)C(=O)O)cc1", "note": "[free MTX, Methotrexate]", "values": [
      {"measurement": "inhibition", "setting": "[1]; 100 nM final concentration", "result": "about 30%"},
      {"measurement": "effect on cell proliferation (in words)", "setting": "[1]; equal molar (10 nM MTX), treated 2 hours, cultured 48 hr", "result": "minimal effect on both cells"},
      {"measurement": "effect on cell proliferation (in words)", "setting": "[2]; U937, 10 nM MTX, treated 2 hours, cultured 48 hr", "result": "minimal effect on both cells"},
      {"measurement": "inhibition", "setting": "[2]; U937, 100 nM final concentration", "result": "about 30%"},
      {"measurement": "cell apoptosis", "setting": "[3]", "result": "minimal effect on both HEL and control cells"},
      {"measurement": "cell apoptosis / toxicity", "setting": "[4]", "result": "minimal effect on both HEL and control cells"}
    ]}
  ]
}
